The supplement of paper PMC10307832

How the values were obtained:
Assay in all cases: relative viability (nuclei count vs DMSO), 5 days (fraction); higher = more cells survive
Metformin + Tozasertib = compound: CN(C)C(=N)NC(=N)N [Metformin] + Cc1cc(Nc2cc(N3CCN(C)CC3)nc(Sc3ccc(NC(=O)C4CC4)cc3)n2)n[nH]1 [Tozasertib] (partner 0.1 µM)
Method in brief: (§1)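 Values are medians from duplicate plates. Each reflects relative viability, defined as the nuclei count of treated wells over that of vehicle wells. Lung cancer cell lines in 1536-well plates were pin-tool dosed one day after seeding with one drug alone or with a fixed anchor-drug dose plus five library-drug doses (not always all listed) in √10 steps, then fixed, stained and imaged at 4× after 5 days.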

Apatinib + Palbociclib = compound: N#CC1(c2ccc(NC(=O)c3cccnc3NCc3ccncc3)cc2)CCCC1 [Apatinib] + CC(=O)c1c(C)c2cnc(Nc3ccc(N4CCNCC4)cn3)nc2n(C2CCCC2)c1=O [Palbociclib] (partner 0.5 µM)
Method in brief: as §1

Apatinib + Navitoclax = compound: N#CC1(c2ccc(NC(=O)c3cccnc3NCc3ccncc3)cc2)CCCC1 [Apatinib] + CC1(C)CCC(c2ccc(Cl)cc2)=C(CN2CCN(c3ccc(C(=O)NS(=O)(=O)c4ccc(N[C@H](CCN5CCOCC5)CSc5ccccc5)c(S(=O)(=O)C(F)(F)F)c4)cc3)CC2)C1 [Navitoclax] (partner 0.5 µM)
Method in brief: as §1

Apatinib + Linsitinib = compound: N#CC1(c2ccc(NC(=O)c3cccnc3NCc3ccncc3)cc2)CCCC1 [Apatinib] + C[C@]1(O)C[C@@H](c2nc(-c3ccc4ccc(-c5ccccc5)nc4c3)c3c(N)nccn32)C1 [Linsitinib] (partner 1 µM)
Method in brief: as §1

Cell Line | relative viability (Metformin + Tozasertib; first compound 10 µM) | relative viability (Metformin + Tozasertib; first compound 31.62 µM) | relative viability (Metformin + Tozasertib; first compound 100 µM) | relative viability (Metformin + Tozasertib; first compound 316.23 µM) | relative viability (Metformin + Tozasertib; first compound 1000 µM) | relative viability (Apatinib + Palbociclib; first compound 0.08 µM) | relative viability (Apatinib + Palbociclib; first compound 0.253 µM) | relative viability (Apatinib + Palbociclib; first compound 0.8 µM) | relative viability (Apatinib + Palbociclib; first compound 2.53 µM) | relative viability (Apatinib + Palbociclib; first compound 8 µM) | relative viability (Apatinib + Navitoclax; first compound 0.08 µM) | relative viability (Apatinib + Navitoclax; first compound 0.253 µM) | relative viability (Apatinib + Navitoclax; first compound 0.8 µM) | relative viability (Apatinib + Navitoclax; first compound 2.53 µM) | relative viability (Apatinib + Navitoclax; first compound 8 µM) | relative viability (Apatinib + Linsitinib; first compound 0.08 µM) | relative viability (Apatinib + Linsitinib; first compound 0.253 µM) | relative viability (Apatinib + Linsitinib; first compound 0.8 µM) | relative viability (Apatinib + Linsitinib; first compound 2.53 µM) | relative viability (Apatinib + Linsitinib; first compound 8 µM)
SW 1573 | 0.153 | 0.119 | 0.175 | 0.161 | 0.162 | 0.4 | 0.518 | 0.433 | 0.379 | 0.252 | 1.01 | 1 | 1.19 | 0.927 | 0.885 | 0.898 | 0.784 | 0.979 | 0.885 | 0.854
HCC-15 |  | 0.489 | 0.395 | 0.412 | 0.521 | 0.792 | 0.734 | 0.677 | 0.705 | 0.586 | 0.733 | 0.718 | 0.681 | 0.608 | 0.653 | 1.02 | 0.937 | 0.813 | 0.878 | 0.878
NCI-H1666 | 0.625 | 0.649 | 0.703 | 0.711 | 0.725 | 0.675 | 0.638 | 0.655 | 0.629 | 0.626 | 1.02 | 0.963 | 1.07 | 0.815 | 1.04 | 0.861 | 0.99 | 0.92 | 0.917 | 0.724
A-427 | 0.225 | 0.255 | 0.224 | 0.185 | 0.245 | 0.52 | 0.534 | 0.507 | 0.518 | 0.453 | 0.929 | 0.911 | 0.934 | 0.853 | 0.478 | 1.1 | 1.06 | 1.07 | 1.11 | 1.09
LU99A | 0.234 | 0.246 | 0.253 | 0.235 | 0.236 | 0.505 | 0.489 | 0.383 | 0.339 | 0.328 | 0.876 | 0.851 | 0.745 | 0.721 | 0.732 | 0.589 | 0.549 | 0.515 | 0.457 | 0.47
NCI-H727 | 0.564 | 0.821 | 0.606 | 0.501 | 0.637 | 0.731 |  | 0.642 | 0.653 | 0.714 | 0.465 | 0.552 | 0.384 | 0.425 | 0.531 | 0.33 | 0.33 | 0.415 | 0.348 | 0.36
EPLC-272H | 0.292 | 0.212 | 0.288 | 0.192 | 0.238 | 0.284 | 0.341 | 0.359 | 0.336 | 0.313 | 1.06 | 1.05 | 0.961 | 1.04 | 0.731 | 1.19 | 1.07 | 1.23 | 1.23 | 1.12
